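Grown in 96-well plates, cells were treated for 48 hours with each compound at five concentrations. Insufficient inhibition: endpoint recorded as highest concentration tested. Abbreviation: GI50, concentration required for 50% inhibition of growth.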 Active and inactive are the calls of the source. Rule as the data show it: active = GI50 up to about 1.1 µM and inactive = higher.
Key:
Experiment in all cases: NCI tumour cell line growth inhibition, 48 h
[1] = test system: HCT-116
[2] = test system: PC-3
[3] = test system: ACHN
[4] = test system: BT-549
[5] = test system: RPMI-8226
[6] = test system: SF-295
[7] = test system: LOX IMVI
[8] = test system: HCC 2998
[9] = test system: SF-268
[10] = test system: MDA-MB-231
[11] = test system: U-251
[12] = test system: A498
[13] = test system: HOP-62
[14] = test system: SK-OV-3
[15] = test system: UO-31
[16] = test system: NCI-H226
[17] = test system: OVCAR-8
[18] = test system: UACC-62
[19] = test system: SR

Measured: GI50

NC(=S)SCCC(=O)O
inactive: [1] > 100 µM | [2] > 100 µM | [3] > 100 µM | [4] > 100 µM | [5] > 100 µM | [6] > 100 µM | [7] > 100 µM | [8] > 100 µM | [9] > 100 µM | [10] > 100 µM | [11] > 100 µM | [12] > 100 µM | [13] > 100 µM | [14] > 100 µM | [15] > 100 µM | [16] > 100 µM | [17] > 100 µM | [18] > 100 µM

COC(=O)N1CC2(CO)C3CC=C(C(=O)Nc4ccccc4Br)C2C1C3Br (stereo not drawn)
inactive: [2] > 50 µM | [3] > 50 µM | [5] > 50 µM | [6] > 50 µM | [7] > 50 µM | [8] > 50 µM | [9] > 50 µM | [10] > 50 µM | [11] > 50 µM | [12] > 50 µM | [13] > 50 µM | [14] > 50 µM | [15] > 50 µM | [16] > 50 µM | [19] > 50 µM | [17] > 50 µM | [18] > 50 µM

CC1(C)CSCC(C)(C)C(=N/N)/C1=N\N
inactive: [1] > 100 µM | [2] > 100 µM | [3] > 100 µM | [6] > 100 µM | [7] > 100 µM | [8] > 100 µM | [9] > 100 µM | [11] > 100 µM | [12] > 100 µM | [13] > 100 µM | [14] > 100 µM | [16] > 100 µM | [19] > 100 µM | [17] > 100 µM | [18] > 100 µM

S=C1Nc2ccccc2SC1c1ccccc1 (stereo not drawn)
inactive: [1] > 100 µM | [2] 57.9 µM | [3] 69.3 µM | [4] > 100 µM | [5] > 100 µM | [6] 16.4 µM | [7] 49.7 µM | [9] 30.3 µM | [10] 66.1 µM | [11] 47.1 µM | [13] 24.8 µM | [14] 35.8 µM | [15] > 100 µM | [16] 28.6 µM | [19] 30.2 µM | [17] > 100 µM | [18] > 100 µM

CN(C)c1ccc2c(NCCCCCCNc3ccnc4cc(N(C)C)ccc34)ccnc2c1
inactive: [1] 6.55 µM | [3] 16.2 µM | [6] 10.7 µM | [8] 15.7 µM | [9] 28 µM | [11] 5.32 µM | [12] 35.1 µM | [13] 19.2 µM | [14] > 100 µM | [15] 32.3 µM | [19] 7.73 µM | [17] 7.29 µM | [18] > 100 µM

COC(=O)/C(C#N)=C1\CCC(C(=O)OC)N1C (stereo not drawn)
inactive: [1] > 100 µM | [5] > 100 µM | [6] > 100 µM | [8] > 100 µM | [9] > 100 µM | [11] > 100 µM | [12] > 100 µM | [13] > 100 µM | [14] > 100 µM | [15] > 100 µM | [19] > 100 µM | [17] > 100 µM | [18] > 100 µM

O=C1O/C(=C\c2ccc(O)cc2)C(c2ccc(O)c(Cl)c2)=C1Cl
inactive: [2] > 100 µM | [3] 57.7 µM | [5] > 100 µM | [6] 39.4 µM | [7] 50.6 µM | [8] 38.2 µM | [9] 29.2 µM | [10] 77.4 µM | [11] 60.5 µM | [12] 33.6 µM | [13] 35.4 µM | [14] > 100 µM | [15] 35.2 µM | [16] 58.1 µM | [19] 27.7 µM | [17] 49.5 µM | [18] 32.1 µM

CC(=O)/C(=C/n1c(=S)sc2ccccc21)C(=O)Nc1ccccc1C
inactive: [1] > 100 µM | [3] > 100 µM | [4] > 100 µM | [6] > 100 µM | [7] > 100 µM | [8] > 100 µM | [9] > 100 µM | [10] > 100 µM | [11] > 100 µM | [12] > 100 µM | [13] > 100 µM | [14] > 100 µM | [15] 79.6 µM | [16] 31.1 µM | [17] > 100 µM | [18] > 100 µM

C[C@H]1ON2CCC[C@@H]2[C@@H]1C(=O)N1C2CC3CCC2(CS1(=O)=O)C3(C)C (stereo partly drawn)
inactive: [1] > 100 µM | [2] > 100 µM | [3] > 100 µM | [6] > 100 µM | [7] > 100 µM | [8] > 100 µM | [9] > 100 µM | [10] > 100 µM | [11] > 100 µM | [12] > 100 µM | [13] > 100 µM | [14] > 100 µM | [16] > 100 µM | [17] > 100 µM | [18] > 100 µM

O=C1CN(c2cccc(C(F)(F)F)c2)C(=O)CN1NCNN1CC(=O)N(c2cccc(C(F)(F)F)c2)CC1=O
inactive: [1] > 100 µM | [2] > 100 µM | [3] > 100 µM | [5] > 100 µM | [6] > 100 µM | [8] > 100 µM | [9] > 100 µM | [10] > 100 µM | [11] > 100 µM | [13] > 100 µM | [14] > 100 µM | [15] > 100 µM | [19] > 100 µM | [17] > 100 µM

CN(C)CCn1c(=O)oc2cc(C(=O)CN3CCOCC3)ccc21
inactive: [1] > 100 µM | [2] > 100 µM | [3] > 100 µM | [4] > 100 µM | [5] > 100 µM | [6] > 100 µM | [7] > 100 µM | [9] > 100 µM | [10] > 100 µM | [11] > 100 µM | [13] > 100 µM | [14] > 100 µM | [15] 88.1 µM | [16] > 100 µM | [19] > 100 µM | [17] > 100 µM | [18] > 100 µM

C1=N\CCN2CCN(CC/N=C\c3ccc(cc3)OCc3cccc(n3)COc3ccc/1cc3)CC2
inactive: [1] > 50 µM | [2] > 50 µM | [3] > 50 µM | [4] > 50 µM | [5] > 50 µM | [6] 46.2 µM | [9] > 50 µM | [10] > 50 µM | [11] > 50 µM | [12] > 50 µM | [13] > 50 µM | [14] > 50 µM | [15] > 50 µM | [16] > 50 µM | [19] > 50 µM | [17] > 50 µM | [18] > 50 µM

Cn1cc(C=C(C#N)C#N)c(=O)n(C)c1=O
inactive: [1] > 100 µM | [2] > 100 µM | [3] > 100 µM | [4] > 100 µM | [5] 52 µM | [6] > 100 µM | [7] > 100 µM | [9] > 100 µM | [10] > 100 µM | [11] > 100 µM | [12] > 100 µM | [13] > 100 µM | [14] > 100 µM | [15] > 100 µM | [16] > 100 µM | [17] > 100 µM | [18] > 100 µM

Cc1ccc(S(=O)(=O)NC(CN)C(=O)O)cc1 (stereo not drawn)
inactive: [1] > 100 µM | [2] > 100 µM | [3] > 100 µM | [4] > 100 µM | [5] > 100 µM | [6] > 100 µM | [7] > 100 µM | [9] > 100 µM | [10] > 100 µM | [11] > 100 µM | [12] > 100 µM | [13] > 100 µM | [14] > 100 µM | [15] > 100 µM | [16] > 100 µM | [17] > 100 µM | [18] > 100 µM

O=C(N/N=C/c1ccccc1)c1c(-c2cccnc2)cnc2ccccc12
inactive: [1] 52.5 µM | [2] > 100 µM | [3] > 100 µM | [4] 79.4 µM | [5] > 100 µM | [6] 12 µM | [8] > 100 µM | [9] > 100 µM | [11] 56.4 µM | [13] 87.7 µM | [14] 84.5 µM | [15] > 100 µM | [16] > 100 µM | [19] 77.1 µM | [17] > 100 µM | [18] 79.8 µM

c1ccc2c(c1)CCN2CCN1CCc2ccccc21
inactive: [1] > 10 µM | [2] > 10 µM | [3] > 10 µM | [5] > 10 µM | [6] > 10 µM | [7] > 10 µM | [8] > 10 µM | [9] > 10 µM | [10] > 10 µM | [11] > 10 µM | [13] > 10 µM | [14] > 10 µM | [15] > 10 µM | [16] > 10 µM | [19] > 10 µM | [17] > 10 µM | [18] > 10 µM

CC(C)=C[C@@H]1C[C@H](C)c2c(O)cc(C)c3c2C1=C(C)C(=O)C3=O [ELISABATIN A]
inactive: [1] 15.2 µM | [2] 10.5 µM | [3] 17.6 µM | [4] 13.7 µM | [5] 18.2 µM | [6] 14.7 µM | [7] 16.3 µM | [8] 21.8 µM | [9] 15 µM | [10] 15.6 µM | [11] 13.8 µM | [12] 19.1 µM | [13] 17.4 µM | [14] 16.7 µM | [16] 16.3 µM | [17] 16.9 µM | [18] 14.7 µM

Source: ChEMBL document CHEMBL1201862, “PubChem BioAssay data set” (2004)
